Assay results as given in ChEMBL document CHEMBL5050861 (2021).
In brackets after ≈: the same amount, converted by molar mass.

What was measured:
Homo sapiens = species on record: Homo sapiens; assay: Inhibition of human GALK1 K252A/E253A double mutant relative to control; set-up: concentration or dose not given beside the values; conditions: concentration not given here
[1] = Stability of compound in rat microsomes assessed as half-life; format: ADME, Microsome
[2] = Inhibition of recombinant mouse GALK1 using ATP as substrate incubated for 1 hr and measured by Kinase-Glo assay
[3] = Kinetic aqueous solubility of the compound; format: physicochemical; conditions: buffer; read-out: Kinetic_solubility
[4] = Inhibition of human GALK1 K252A/E253A double mutant; conditions: read-out: IC50
[5] = Permeability of compound by PAMPA assay; format: ADME; conditions: for Papp: read-out: permeability

Compound | inhibition (Homo sapiens) [%] | half-life [1] [min] | IC50 ([2]; read-out: IC50) [µM] | solubility kinetic [3] [µg/mL] | IC50 [4] [µM] | Papp [5] [×10⁻⁶ cm/s] | permeability [5] | IC50 [2]
CC1=C(C(=O)Nc2cc(C(=O)O)ccn2)C(c2ccccc2Cl)N=C(Nc2nc3ccccc3o2)N1 (racemic) | 88 | > 30 | 6.85 | > 74 | 0.97 | – | – | –
CC1=C(C(=O)Nc2cc(C(=O)O)ccn2)C(c2cccc(C(F)(F)F)c2Cl)N=C(Nc2nc3ccc(F)cc3o2)N1 (stereo unspecified) | 97 | > 30 | 27.3 | 70.1 (≈ 119 µM) | 2.4 | < 10 | – | –
CC1=C(C(=O)Nc2ccc(C(=O)O)cc2)C(c2ccccc2Cl)N=C(Nc2nc3ccccc3o2)N1 (stereo unspecified) | 100 | > 30 | 6.11 | < 1 | 1.4 | – | – | –
CC1=C(C(=O)NCc2cn(C)cn2)C(c2ccccc2Cl)N=C(Nc2nc3ccccc3o2)N1 (racemic) | 90 | 14.6 | 7.69 | 26.6 (≈ 55.9 µM) | 0.77 | – | – | –
CC1=C(C(=O)NCc2cncn2C)C(c2ccccc2Cl)N=C(Nc2nc3ccccc3o2)N1 (stereo unspecified) | 98 | 8.87 | 6.85 | 42 (≈ 88.2 µM) | 1.4 | – | – | –
CC1=C(C(=O)Nc2ncc(C(=O)O)s2)C(c2ccccc2Cl)N=C(Nc2nc3ccccc3o2)N1 (stereo unspecified) | 99 | > 30 | – | > 75 | 1.7 | < 1 | – | –
CC1=C(C(=O)Nc2nncs2)C(c2ccccc2Cl)N=C(Nc2nc3ccccc3o2)N1 (stereo unspecified) | 96 | > 30 | 7.69 | < 1 | 3.4 | – | – | –
CC1=C(C(=O)NCc2cnn(C)c2)C(c2ccc(C)cc2Cl)N=C(Nc2nc3cccc(N)c3o2)N1 (stereo unspecified) | – | 14.1 | 2.17 | 4.47 (≈ 8.85 µM) | 0.047 | – | 25.28 10^-6 cm/s | –
O=C(O)CNC(=O)C1CC(=O)C2=C(C1)NC(Nc1nc3ccccc3o1)=NC2c1ccccc1Cl (stereo unspecified) | – | > 30 | 4.85 | 58.2 (≈ 118 µM) | – | < 1 | – | –
CC1=C(C(=O)Nc2nncs2)C(c2ccc(Cl)cc2Cl)N=C(Nc2nc3ccccc3o2)N1 (stereo unspecified) | – | > 30 | 6.11 | < 1 | – | < 4.9 | – | –
CC1=C(C(=O)Nc2cc(-c3nn[nH]n3)ccn2)C(c2ccc(C)cc2Cl)N=C(Nc2nc3ccc(F)cc3o2)N1 (stereo unspecified) | – | > 30 | 9.68 | < 1 | – | < 1 | – | –
CC1=C(C(=O)Nc2cccc(CO)c2)C(c2ccccc2Cl)N=C(Nc2nc3ccccc3o2)N1 (stereo unspecified) | – | > 30 | 9.68 | < 1 | – | – | 1124.1 10^-6 cm/s | –
CC1=C(C(=O)Nc2nncs2)C2(CCCC2)N=C(Nc2nc3ccccc3o2)N1 | – | > 30 | 19.3 | < 1 | – | < 1 | – | –
CC1=C(C(=O)NCc2cncs2)C(c2ccccc2Cl)N=C(Nc2nc3ccccc3o2)N1 (stereo unspecified) | 84 | 6.43 | 12.2 | < 1 | 1.2 | – | – | –
CC1=C(C(=O)Nc2nnc(-c3cccnc3)s2)C(c2ccccc2Cl)N=C(Nc2nc3cc(Cl)ccc3o2)N1 (stereo unspecified) | – | > 30 | 19.3 | < 1 | – | < 3.4 | – | –
CC1=C(C(=O)Nc2ccc(C#N)cn2)C(c2ccccc2Cl)N=C(Nc2nc3ccc(F)cc3o2)N1 (stereo unspecified) | – | > 30 | 13.7 | < 1 | – | < 7.8 | – | –
CC1=C(C(=O)N2CCOCC2)C(c2ccccc2Cl)N=C(Nc2nc3ccccc3o2)N1 (stereo unspecified) | – | 2.1 | 24.3 | 15.3 (≈ 33.9 µM) | – | – | 1046.7 10^-6 cm/s | –
CC1=C(C(=O)Nc2cc(C(=O)O)ccn2)C(c2ccc(C)cc2Cl)N=C(Nc2nc3ccc(F)cc3o2)N1 (racemic) | 100 | > 30 | 3.06 | 2.8 (≈ 5.23 µM) | 0.136 | – | – | –

Compound | inhibition (Homo sapiens) [%] | half-life [1] [min] | IC50 ([2]; read-out: IC50) [µM] | solubility kinetic [3] [µg/mL] | IC50 [4] [µM] | Papp [5] [×10⁻⁶ cm/s] | permeability [5] | IC50 [2]
CC1=C(C(=O)Nc2cc(C(=O)O)ccn2)C(c2cccc(N)c2Cl)N=C(Nc2nc3ccc(F)cc3o2)N1 (stereo unspecified) | – | > 30 | 17.2 | > 79 | – | < 1 | – | –
COc1ccc2nc(NC3=NC(c4ccccc4Cl)C(C(=O)Nc4nnc(-c5cccnc5)s4)=C(C)N3)oc2c1 (stereo unspecified) | – | > 30 | 21.7 | < 1 | – | < 4.4 | – | –
CC1=C(C(=O)NCc2cnn(C)c2)C(c2ccc(C)cc2Cl)N=C(Nc2nc3ccc(F)c(C(=O)O)c3o2)N1 (stereo unspecified) | – | > 30 | 21.7 | 26.3 (≈ 47.6 µM) | – | < 1 | – | –
CC1=C(C(=O)NCc2ccccn2)C(c2ccccc2Cl)N=C(Nc2nc3ccccc3o2)N1 (stereo unspecified) | – | 6.56 | 19.3 | 1.8 (≈ 3.81 µM) | – | – | 1424 10^-6 cm/s | –
CC1=C(C(=O)Nc2nnc(C)s2)C(c2ccccc2Cl)N=C(Nc2nc3ccccc3o2)N1 (stereo unspecified) | 95 | > 30 | 10.7 | < 1 | 3.9 | – | – | –
CC1=C(C(=O)Nc2cc(C(=O)O)ccn2)[C@@H](c2ccccc2Cl)N=C(Nc2nc3ccc(F)cc3o2)N1 | – | > 30 | 13.7 | 17.3 (≈ 33.2 µM) | – | < 1 | – | –
CC1=C(C(=O)Nc2ccc(C(=O)O)nc2)C(c2ccccc2Cl)N=C(Nc2nc3ccccc3o2)N1 (stereo unspecified) | – | > 30 | 9.68 | 24.6 (≈ 48.9 µM) | – | < 1 | – | –
COc1ccc([C@@H]2N=C(Nc3nc4cccc(N)c4o3)NC(C)=C2C(=O)Nc2cc(C(=O)O)ccn2)c(Cl)c1 | – | > 30 | 2.43 | > 81 | – | < 1 | – | –
CC1=C(C(=O)Nc2cc(C(=O)O)ccn2)C(c2ccc(C(=O)O)cc2Cl)N=C(Nc2nc3ccc(F)cc3o2)N1 (stereo unspecified) | – | > 30 | 15.3 | > 83 | – | < 1 | – | –
CC1=C(C(=O)Nc2cc(C(=O)O)ccn2)[C@@H](c2ccc(C)cc2Cl)N=C(Nc2nc3cccc(N)c3o2)N1 | – | > 30 | 21.7 | > 78 | – | < 1 | – | –
CC1=C(C(=O)Nc2cc(-c3nn[nH]n3)ccn2)C(c2ccccc2Cl)N=C(Nc2nc3ccc(F)cc3o2)N1 (stereo unspecified) | – | > 30 | 7.69 | 29.9 (≈ 54.9 µM) | – | < 1 | – | –
CC1=C(C(=O)NCc2ccc(C(=O)O)cc2)C(c2ccccc2Cl)N=C(Nc2nc3ccccc3o2)N1 (stereo unspecified) | – | > 30 | 10.9 | 47 (≈ 91.1 µM) | – | < 1 | – | –
CC1=C(C(=O)Nc2nnc(-c3cccnc3)s2)C(c2ccccc2Cl)N=C(Nc2nc3cc(F)ccc3o2)N1 (stereo unspecified) | – | > 30 | 19.3 | < 1 | – | < 1.5 | – | –
CC1=C(C(=O)Nc2ccc(-n3cccn3)cc2)C(c2ccccc2Cl)N=C(Nc2nc3ccccc3o2)N1 (stereo unspecified) | – | 16.4 | 12.2 | < 1 | – | < 11.8 | – | –
CC1=C(C(=O)Nc2cc(C(=O)O)ccn2)C(c2ccc(C)cc2Cl)N=C(Nc2nc3cccnc3o2)N1 (stereo unspecified) | – | > 30 | – | > 51 | – | < 1 | – | Not Active
CC1=C(C(=O)Nc2cc(C(=O)O)ccn2)C(c2ccc(Br)cc2Cl)N=C(Nc2nc3ccc(F)cc3o2)N1 (stereo unspecified) | – | > 30 | 3.85 | 2.4 (≈ 4 µM) | – | < 1.7 | – | –
CC1=C(C(=O)Nc2cc(C(=O)O)ccn2)[C@H](c2ccc(C)cc2Cl)N=C(Nc2nc3cccc(N)c3o2)N1 | – | > 30 | 1.41 | > 53 | – | < 1 | – | –
CC1=C(C(=O)Nc2cccc(-c3nnn[nH]3)c2)C(c2ccccc2Cl)N=C(Nc2nc3ccccc3o2)N1 (stereo unspecified) | – | > 30 | 34.4 | 47.5 (≈ 90.3 µM) | – | 5 | – | –
